These results are taken from patent US5985281A, “Chemical compounds” (Zeneca Limited, priority 1994, dated 1999).

Data set [1] has as its system Lys66Glu BP-RNase. Type of data set: biochemical, bovine. As to conditions: for kcat/Km: pH 7.5.
Data set [2] relates to HP-RNase. Type of data set: biochemical, human. As to conditions: pH 7.
Data set [3] concerns Arg4Ala,Lys6Ala,Lys66Glu HP-RNase. Type of data set: biochemical, human. As to conditions: for kcat/Km: pH 7.
Data set [4] deals with Lys66Glu BP-RNase. Briefly: Enzyme kinetics of prodrug analogues with mutant Lys66Glu bovine RNase. As to conditions: 25° C.
Data set [5] concerns LoVo tumour. As to the kind of experiment: Anti-tumour activity in LoVo xenografted mice. Type of data set: in vivo, athymic nude mice. As to conditions: conjugate 10-100 mg/kg iv, then prodrug 100-1000 mg/kg iv or ip; vs untreated, conjugate or prodrug alone. As to the method: LoVo tumour cells (10^7) are injected subcutaneously into athymic nude mice. When the tumours are 4-5 mm in diameter the conjugate is administered iv at doses between 10-100 mg/kg. Following localisation of the conjugate to the tumours and allowing a suitable time interval for residual conjugate to clear from the bloodstream and normal tissues (1-4 days) the prodrug is administered either iv or ip to the mice in dose ranging between 100-1000 mg/kg.

In data set [6] the target is T1, BP-RNase (Bos taurus, UniProt P61823).
T1 sequence (P61823 27-150): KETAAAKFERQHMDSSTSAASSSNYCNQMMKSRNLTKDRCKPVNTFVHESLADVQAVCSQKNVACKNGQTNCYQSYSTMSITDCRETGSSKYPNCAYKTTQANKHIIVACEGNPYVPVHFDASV
Briefly: Enzyme kinetics of RNase prodrug versus native bovine pancreatic RNase. The data set is classed as biochemical. As to conditions: 37° C., pH 7.5.

The test system of data set [7] is LoVo colorectal tumour cells.
The test system of data set [8] is D253K mutant HCPB. Briefly: Determination of Km and kcat of D253K mutant HCPB with Hipp-Asp and Hipp-Glu. Type of data set: biochemical, human. As to conditions: for Km / kcat / kcat/Km: pH 7.5, 37° C.
Data set [9] has as its target C > p. Briefly: Kinetic characterisation of RNase enzymes with C>p as substrate at pH 7.0. Type of data set: biochemical. The note with it: CpA and C>p as substrates. As to the method:
The kinetic characterisation was carried out using CpA and C>p as substrates (FIG. 16). The kinetic parameters Km, kcat, and kcat/Km were compared with the values obtained for commercial and recombinant bovine pancreatic RNase under the same assay conditions (see Tables).
Kinetic parameters of the different enzymes for C > p as […]

Data set [10] in a line: Enzymic activity of recombinant HCPB against Hipp-Arg (spectrophotometric). The data set is classed as biochemical. The note with it: Tris HCl pH 7.5. How it is done:
Purified human CPB, produced as described in Reference Example 20, was assayed for its ability to convert hippuryl-L-arginine (Hipp-Arg) to hippuric acid using a spectrophotometric assay.
Km and Vmax values were calculated using the ENZFITTER™ software programme (Biosoft™, Perkin Elmer). Kcat was calculated form Vmax by dividing by the enzyme concentration in the reaction mixture.

A short description of data set [11]: HCPB activity of COS cell supernatants against Hipp-Arg. The data set is classed as biochemical. As to conditions: COS-7 supernatant (250 μl), 5 h assay.
A short description of data set [12]: Conversion of Hipp-Asp to hippuric acid by mutant and native human CPB (HPLC). The data set is classed as biochemical. As to conditions: 0.5 mM Hipp-Asp, 4 μg enzyme, 5 h, 37° C., pH 7.5.
Data set [13] is described as follows: Conversion of Hipp-Glu to hippuric acid by mutant and native human CPB (HPLC). As to conditions: 0.5 mM Hipp-Glu, 4 μg enzyme, 5 h, 37° C., pH 7.5. The data set is classed as biochemical.
A short description of data set [14]: Conversion of Hipp-Arg to hippuric acid by mutant and native human CPB (HPLC). The data set is classed as biochemical. As to conditions: 4 μg enzyme, 5 h, 37° C., pH 7.5.
Data set [15] has as its system C>p. As to the kind of experiment: RNase activity of recombinant and Lys66Glu bovine RNase on hydrolysis of C>p (and CpA). Type of data set: biochemical.

Substitutions are numbered along the chain they refer to. Names and notes keep the numbering of the source. Where two headings read alike, the source gives them in different places. Residues, ends and D or L forms follow the SMILES beside them.

Take `Nc1ccn([C@@H]2O[C@H](CO)[C@H]3OP(=O)(O)O[C@H]32)c(=O)n1` [C > p, cytidine-2',3'-cyclic monophosphate, reference compound]: the kcat/Km was found to be 3.0 in data set [1], 1.2 in data set [2], 1.2 in data set [3] and 3.0 mM⁻¹ s⁻¹ in [4].
`CCCN(CCC)c1ccc(OP(=O)(O)O[C@H]2[C@@H](O)[C@H](n3ccc(N)nc3=O)O[C@@H]2CNC(=O)CN)cc1` [Reference Example 7]: in [4], the kcat/Km was 109(11) mM^-1 s^-1.
Broadly, the IC50 is the point on the concentration scale where inhibition reaches its midpoint. Turning to `NCC(=O)NC[C@H]1O[C@@H](n2ccc(=O)[nH]c2=O)[C@H](O)[C@@H]1OP(=O)(O)Oc1ccc(N(CCCl)CCCl)cc1` [Example 3, O-[(2R,3S,4R,5R)-2-(2-aminoacetamidomethyl)-5-(2,4-dioxo-1,2,3,4-tetrahydropyrimidin-1-yl)-4-hydroxy-2,3,4,5-tetrahydrofuran-3-yl]O-[4-(bis[2-chloroethyl]amino)phenyl] hydrogen phosphate], the “tumour growth with combination of conjugate and prodrug” value in data set [5] is on record as “significantly slower”. Besides, the kcat/Km in data set [6] turned out to be 370 M⁻¹ s⁻¹; in data set [1] it was 18; in data set [2], 0.2; in [3], 3.6. In addition, the “rate of hydrolysis compared with native enzyme” value in [1] and in [3] was “much faster than the native enzyme” in each case. In [7], the “cytotoxicity of prodrug with A5B7 F(ab')2-Arg4Ala,Lys6Ala,Lys66Glu HP-RNase conjugate” value is listed as “comparable to that of the active drug”. Further, the “cytotoxicity of prodrug with free Arg4Ala,Lys6Ala,Lys66Glu HP-RNase” value in data set [7] is “comparable to that of the active drug”. Besides, in [7] (human), the “fold less cytotoxic than the drug” value is “approximately 30 fold”. Further, the IC50 in data set [7] (read-out: IC50 (inhibition of cell growth by 50%)) is roughly 30 µM.
The term Km denotes the substrate concentration at which the rate is half of its maximum. One may read the kcat as the maximal rate divided by the concentration of active sites. Take `O=C(O)CC[C@H](NC(=O)CNC(=O)c1ccccc1)C(=O)O` [Hipp-Glu, hippuryl-L-glutamic acid] (HELM PEPTIDE1{[O=C(c1ccccc1)[*:2]].G.E}$$$$V2.0): the “kcat/Km compared to the Hipp-Asp substrate” value in data set [8] (Hipp-Glu vs Hipp-Asp) is “approximately 7 fold”. For the same molecule, in [8], the Michaelis constant (Km) came to 5.3 mM, the catalytic constant (kcat) was found to be 3.8 s⁻¹ and the kcat/Km came out at 700 M⁻¹ s⁻¹.
On to `CCCN(CCC)c1ccc(OP(=O)(O)O[C@H]2[C@@H](O)[C@H](n3ccc(=O)[nH]c3=O)O[C@@H]2CNC(=O)CN)cc1` [Reference Example 6], for which the kcat/Km in data set [4] was 25(6) mM^-1 s^-1.
For the molecule `O=C(O)C[C@H](NC(=O)CNC(=O)c1ccccc1)C(=O)O` [Hipp-Asp, hippuryl-L-aspartic acid] (HELM PEPTIDE1{[O=C(c1ccccc1)[*:2]].G.D}$$$$V2.0), in [8], the Km is 2.7 mM, the kcat worked out at 0.26 s⁻¹ and the kcat/Km was 100 M⁻¹ s⁻¹.

B1: Rec. HP-RNase R4A:K6A: recombinant Arg4Ala,Lys6Ala human pancreatic ribonuclease (protein, UniProt P07998 29-156, looked up, variant R4A K6A)
Ribonuclease pancreatic: KESAAAKFQRQHMDSDSSPSSSSTYCNQMMRRRNMTQGRCKPVNTFVHEPLVDVQNVCFQEKVTCKNGQGNCYKSNSSMHITDCRLTNGSRYPNCAYRTSPKERHIIVACEGSPYVPVHFDASVEDST
On to B1, for which, in data set [9], the “kinetic properties compared with homologous bovine counterpart” value is recorded as “not significantly different”.

B2: Native CPB: native human pancreatic carboxypeptidase B, recombinant (protein, UniProt P15086 111-417, looked up)
Carboxypeptidase B: ATGHSYEKYNKWETIEAWTQQVATENPALISRSVIGTTFEGRAIYLLKVGKAGQNKPAIFMDCGFHAREWISPAFCQWFVREAVRTYGREIQVTELLDKLDFYVLPVLNIDGYIYTWTKSRFWRKTRSTHTGSSCIGTDPNRNFDAGWCEIGASRNPCDETYCGPAAESEKETKALADFIRNKLSSIKAYLTIHSYSQMMIYPYSYAYKLGENNAELNALAKATVKELASLHGTKYTYGPGATTIYPAAGGSDDWAYDQGIRYSFTFELRDTGRYGFLLPESQIRATCEETFLAIKYVASYVLEHLY
For the molecule B2, in [10], the kcat amounted to 65 s⁻¹. Also, in [11] (LIPOFECTIN-only control 1.2%), the “hydrolysis of Hipp-Arg substrate” value came to 61%. Moreover, in data set [12], the “% conversion to Hippuric acid, Hipp-Asp” value was 0%. In [13], the “% conversion to Hippuric acid, Hipp-Glu” value was 0%. Moreover, the “% conversion to Hippuric acid, Hipp-Arg” value in data set [14] was 100%.

B3: Rec. BP-RNase: recombinant bovine pancreatic ribonuclease (protein, UniProt P61823 27-150, looked up)
Ribonuclease pancreatic: T1 sequence (P61823 27-150)
For B3, in data set [15] (hydrolysis of CpA and C>p), the “specific activity compared with the commercial enzyme” value is reported as “equal specific activity to that of the commercial enzyme”.

B4: Lys66Glu BP-RNase: bovine Lys66Glu pancreatic ribonuclease (protein, UniProt P61823 27-150, looked up, variant K66E)
Ribonuclease pancreatic: T1 sequence (P61823 27-150) with K66E
In the case of B4, the “kinetic properties compared with commercial bovine enzyme” value in data set [15] (C>p hydrolysis, pH 7.0) is “not significantly different to the commercial bovine enzyme”.

B5: proHCPB: pro form of human pancreatic carboxypeptidase B expressed from COS cells (protein, UniProt P15086 16-417, looked up)
pro-form: HHGGEHFEGEKVFRVNVEDENHINIIRELASTTQIDFWKPDSVTQIKPHSTVDFRVKAEDTVTVENVLKQNELQYKVLISNLRNVVEAQFDSRVRATGHSYEKYNKWETIEAWTQQVATENPALISRSVIGTTFEGRAIYLLKVGKAGQNKPAIFMDCGFHAREWISPAFCQWFVREAVRTYGREIQVTELLDKLDFYVLPVLNIDGYIYTWTKSRFWRKTRSTHTGSSCIGTDPNRNFDAGWCEIGASRNPCDETYCGPAAESEKETKALADFIRNKLSSIKAYLTIHSYSQMMIYPYSYAYKLGENNAELNALAKATVKELASLHGTKYTYGPGATTIYPAAGGSDDWAYDQGIRYSFTFELRDTGRYGFLLPESQIRATCEETFLAIKYVASYVLEHLY
modifications: pro-form
notes: pro form of human pancreatic carboxypeptidase B expressed from COS cells
As to B5, the “hydrolysis of Hipp-Arg substrate after activation with trypsin” value in data set [11] (trypsin 700 μg/ml, LIPOFECTIN-only control 30%) was “complete hydrolysis”.
